# Counter-ions that a name gives are not always drawn.
# Assay: Water solubility of an additive
# Type: physicochemical
# Settings: 25° C., demineralized water
# Protocol: The water solubility of an additive was determined at ambient conditions (25° C.) in demineralized water. Measured quantities of additive and demineralized water were combined and shaken for up to two hours. The additive was deemed soluble if a clear solution resulted; the additive was otherwise deemed insoluble. The water solubility of an additive is the maximum concentration of additive producing a clear solution in water.
row,Molecule,Solubility H2O
1,"CCCCOC(=O)CC(CC(=O)OCCCC)(OC(C)=O)C(=O)OCCCC [ATBC, Acetyl tributyl citrate]",<0.1 w %
2,"CCCCOC(=O)CC(O)C(=O)OCCCC (stereo not drawn) [DBM, Dibutyl malate]",0.2 w %
3,"CCCCOC(=O)C(O)C(O)C(=O)OCCCC (stereo not drawn) [DBT, Dibutyl tartarate]",0.8 w %
4,"CCOC(=O)CC(O)C(=O)OCC (stereo not drawn) [DEM, Diethyl malate]",>10 w %
5,"CC(C)OC(=O)C(O)C(O)C(=O)OC(C)C (stereo not drawn) [DIPT, Diisopropyl tartarate]",>10 w %
6,"C=C(C)C(=O)OCC(CO)OC(=O)C(=C)C (stereo not drawn) [GDM, Glycerol dimethacrylate]",0.4 w %
7,"CCCCOC(=O)CC(O)(CC(=O)OCCCC)C(=O)OCCCC [TBC, Tributyl citrate]",<0.05 w %
8,"COC(=O)CC(O)(CC(=O)OC)C(=O)OC [TMC, Trimethyl citrate]",6 w %
9,C4H9(OC3H6)3—OH [DTPnB],3 w %

# Source: patent US7723417B2, “Fluorochemical composition and method for treating a substrate therewith” (3M Innovative Properties Company, priority 2004, dated 2010)
